Experimental data from US9827229B2, “Small molecule securinine and norsecurinine analogs and their use in cancers, inflammatory diseases and infections” (INVENIO THERAPEUTICS INC., priority 2013, dated 2017).
Read-outs that look alike come from different tables or passages of the source.

What was measured:
[1] = tested on: HL60 cells; experiment: Differentiation of HL60 cells (Dif50); type: cell-based, human
Description: The tested compounds and their respective results are produced in Table 1. Those skilled in the art will appreciate that combining the securinine and/or norsecurinine analogs with other differentiation inducing agents, such as all-trans retinoic acid, cytarabine and/or an anthracycline, would be of further benefit. Those skilled in the art will appreciate that inducing differentiation may further reduce oxidative damage due to lower presence of radical inducing enzymes (see, e.g., Yamada et al. J Biol Chem 259(5)3021-3025 (1984) and Weil et al., PNAS 84:2057-2061 (1987)).
(§1) The analogs were then tested and evaluated on the ability to affect differentiation and growth of HL60 cells.

[2] = tested on: HCT116 P53+/+; experiment: Growth inhibition of colon cancer HCT116 P53+/+; type: cell-based; settings: Homo sapiens, HCT-116, colon cancer HCT116 P53+/+
Description: (§2) The analogs were then further tested for inhibiting growth against various cancer cell lines: AML (Mol3, OCI), Colon cancer (HCT116) and Ovary cancer (SKOV3). IC50 are documented in Table 2.

[3] = tested on: SKOV3 P53−/−; experiment: Growth inhibition of ovary cancer SKOV3 P53−/−; type: cell-based
Description: as §2

[4] = tested on: HCT116 P53−/−; experiment: Growth inhibition of colon cancer HCT116 P53−/−; type: cell-based; settings: Homo sapiens, HCT-116, colon cancer HCT116 P53−/−
Description: as §2

[5] = tested on: SKOV3 P53+/+; experiment: Growth inhibition of ovary cancer SKOV3 P53+/+; type: cell-based
Description: as §2

[6] = tested on: HL60 cells; experiment: Growth of HL60 cells (IC50); type: cell-based, human; design: HL-60, Dif50/IC50 column: second value of 'x/y at 1.25 uM' (growth): unit not given here; settings: for IC50: Homo sapiens, HL-60, HL-60 cells, growth, read-out: HL-60, IC50
Procedure: as §1

[7] = tested on: MOL3; experiment: Growth inhibition of AML cell line MOL3; type: cell-based, human; settings: Homo sapiens
Description: as §2

[8] = Homo sapiens, HL-60, HL-60 cells, differentiation, no unit in head or cell (other cells of the column print uM), read-out: HL-60, Dif50
[9] = Homo sapiens, HL-60, read-out: HL-60, Dif50, HL-60 cells, differentiation, no unit in head or cell (other cells of the column print uM)
[10] = read-out: HL-60, Dif50, HL-60 cells, differentiation, no unit in head or cell (other cells of the column print uM)
[11] = Homo sapiens, SK-OV-3, ovary cancer SKOV3 P53−/−
[12] = Homo sapiens, SK-OV-3, ovary cancer SKOV3 P53+/+
[13] = no unit in head or cell (other cells of the column print uM)

## CC(C)CS[C@H]1CC2=CC(=O)O[C@@]23C[C@@H]1N1CCCC[C@@H]13 (stereo in doubt) [INVS-MG-55B & 57B = 37B]
[1]; [8]
  EC50: 15 to 20 µM

## CC(C)CS[C@@H]1CC2=CC(=O)O[C@@]23C[C@@H]1N1CCCC[C@@H]13 (stereo in doubt) [INVS-MG-57A]
[1]; [8]
  EC50: 20 to 30 µM

## O=C1C=C2C(c3ccccc3)=C[C@@H]3C[C@@]2(O1)[C@H]1CCCCN31 [INVG-28-1 = INVS-MG-56B]
[1]; [8]
  EC50: > 30 µM

## COC(OC)[C@H]1CCC2N1[C@@H]1C=CC3=CC(=O)O[C@@]32C1 (stereo partly shown) [INVG-Z-27-4 = INVS-MG-52D]
[1]; [9]
  EC50: 3.25 to 5 µM

## O=C1C=C2CC(SC3CCCCC3)[C@@H]3C[C@@]2(O1)[C@H]1CCCCN31 (stereo partly shown) [INVS-MG-3B]
[1]; [8]
  EC50: 15 to 20 µM

## O=C1CC2(SCC(F)(F)F)CC(SCC(F)(F)F)[C@@H]3C[C@@]2(O1)[C@H]1CCCCN31 (stereo partly shown) [INVS-MG-5A]
[1]; [9]
  EC50: 5 to 7.5 µM

## O=C1C=C2C[C@H](SCC(F)(F)F)[C@@H]3C[C@@]2(O1)[C@H]1CCCCN31 [INVS-MG-5B]
[1]; [8]
  EC50: > 30 µM

## O=C1C=C2C[C@@H](SCC(F)(F)F)[C@@H]3C[C@@]2(O1)[C@H]1CCCCN31 [INVS-MG-5C]
[1]; [8]
  EC50: 20 to 30 µM

## O=C1C=C2CC(SCCSC3CC4=CC(=O)O[C@]45C[C@H]3N3CCCC[C@H]35)[C@@H]3C[C@@]2(O1)[C@H]1CCCCN31 (stereo partly shown) [INVS-MG-7C]
[1]; [8]
  EC50: 10 to 15 µM

## CCCNC1CC2=CC(=O)O[C@@]23C[C@@H]1N1CCCC[C@@H]13 (stereo partly shown) [INVS-MG-44]
[1]; [8]
  EC50: 15 to 20 µM

## CCN(CC)CCSC1CC2=CC(=O)O[C@@]23C[C@@H]1N1CCCC[C@@H]13 (stereo partly shown) [INVS-MG-60]
[1]; [8]
  EC50: 15 to 20 µM

## O=C1C=C2[C@@H]3C=CC[C@@]2(O1)[C@H]1CCCCN1O3 [INVS-MG-74A]
[1]; [8]
  EC50: > 30 µM

## O=C1O[C@]23CC4OC4[C@H](ON4CCCC[C@@H]42)C32OC12 (stereo partly shown) [INVS-MG-76-aq]
[1]; [9]
  EC50: > 30 µM

## O=C1O[C@]23CC4OC4[C@H](ON4CCCC[C@@H]42)C32OC12 (stereo partly shown) [INVS-MG-77-aq]
[1]; [10]
  EC50: > 30 µM

## COc1ccc(CN[C@@H]2CC3=CC(=O)O[C@@]34C[C@@H]2N2CCCC[C@@H]24)cc1 [INVS-MG-86C]
[1]; [8]
  EC50: > 30 µM

## O=C1C=C2C=C[C@@H]3C[C@@]2(O1)[C@H]1CCCCN31 [INVS-MG-94-aq]
[1]; [10]
  EC50: > 30 µM

## CO[C@H]1CC2=CC(=O)O[C@@]23C[C@@H]1N1CCCC[C@@H]13 [INVS-MG-97-IIB]
[1]; [9]
  EC50: > 30 µM

## NC1CC2=CC(=O)O[C@@]23C[C@@H]1N1CCCC[C@@H]13 (stereo partly shown) [INVS-MG-97-IIE]
[1]; [8]
  EC50: 20 to 30 µM

## O=C1C=C2C[C@H](NCCc3cc4ccccc4[nH]3)[C@@H]3C[C@@]2(O1)[C@H]1CCCCN31 [INVS-MG-98B]
[1]; [8]
  EC50: 10 to 15 µM

## CCOC#CC1=C[C@@H]2C[C@@]3(OC(=O)C=C13)[C@H]1CCCCN21 [INVS-MG-120A]
[2]
  IC50: 1.6 µM
[3]; [11]
  IC50: 2.6 µM
[4]
  IC50: 2.1 µM
[5]; [12]
  IC50: 1.9 µM

## N#CCCCC#C/C(=C\C1=C[C@@H]2C[C@@]3(OC(=O)C=C13)[C@H]1CCCCN21)CCCC#N [INVS-MG-125-IIB]
[1]; HL-60 cells
  HL-60, Dif50/IC50 column: first value of 'x/y at 10 uM' (differentiation): 40
[6]; HL-60 cells
  HL-60, Dif50/IC50 column: second value of 'x/y at 10 uM' (growth): 35

## N#CCCCC#CC1=C[C@@H]2C[C@@]3(OC(=O)C=C13)[C@H]1CCCCN21 [INVS-MG-125A]
[2]
  IC50: 1.3 µM
[3]; [11]
  IC50: 2.4 µM
[4]
  IC50: 2 µM
[5]; [12]
  IC50: 1.3 µM

## O=C1C=C2C(C#Cc3ccsc3)=C[C@@H]3C[C@@]2(O1)[C@H]1CCCCN31 [INVS-MG-136B]
[7]
  IC50: 0.06 µM
[2]
  IC50: 2.2 µM
[3]; ovary cancer SKOV3 P53−/−
  IC50: 2.9 µM
[4]
  IC50: 2.1 µM
[5]; ovary cancer SKOV3 P53+/+
  IC50: 2.8 µM

## CCN(CC)CC#CC1=C[C@@H]2C[C@@]3(OC(=O)C=C13)[C@H]1CCCCN21 [INVS-MG-145A]
[2]
  IC50: 1.1 µM
[3]; [11]
  IC50: 1.2 µM
[4]
  IC50: 2.1 µM
[5]; [12]
  IC50: 0.8 µM

## CN(C)c1ccc(C#CC2=C[C@@H]3C[C@@]4(OC(=O)C=C24)[C@H]2CCCCN32)cc1 [INVS-MG-146B]
[2]
  IC50: 0.8 µM
[3]; [11]
  IC50: 0.8 µM
[4]
  IC50: 1.8 µM
[5]; [12]
  IC50: 0.7 µM

## O=C1C=C2C(C#Cc3cc4ccccc4c4ccccc34)=C[C@@H]3C[C@@]2(O1)[C@H]1CCCCN31 [INVS-MG-158B]
[2]
  IC50: 1.2 µM
[3]; [11]
  IC50: 3.1 µM
[4]
  IC50: 2.3 µM
[5]; [12]
  IC50: 1.2 µM

## C=CCOCC#CC1=C[C@@H]2C[C@@]3(OC(=O)C=C13)[C@H]1CCCCN21 [INVS-MG-159A]
[1]; HL-60 cells
  HL-60, Dif50/IC50 column: first value of 'x/y at 10 uM' (differentiation): 20/20 at 10 uM
[6]; HL-60 cells
  HL-60, Dif50/IC50 column: second value of 'x/y at 10 uM' (growth): 20/20 at 10 uM

## O=C1C=C2C(C#CC3C=CCCC3)=C[C@@H]3C[C@@]2(O1)[C@H]1CCCCN31 (stereo partly shown) [INVS-MG-160B]
[1]; HL-60 cells, at 1.25 uM
  HL-60, Dif50/IC50 column: first value of 'x/y at 1.25 uM' (differentiation): 50
[6]; HL-60 cells, at 1.25 uM
  HL-60, Dif50/IC50 column: second value of 'x/y at 1.25 uM' (growth): 40

## N#Cc1ccc(C#CC2=C[C@@H]3C[C@@]4(OC(=O)C=C24)[C@H]2CCCCN32)cc1 [INVS-MG-164B]
[2]
  IC50: 5.2 µM
[3]; [11]
  IC50: 4.2 µM
[4]
  IC50: 6.4 µM
[5]; [12]
  IC50: 6.8 µM

## COc1cccc(C#CC2=C[C@@H]3C[C@@]4(OC(=O)C=C24)[C@H]2CCCCN32)c1 [INVS-MG-165B]
[2]
  IC50: 3.2 µM
[3]; [11]
  IC50: 3.5 µM
[4]
  IC50: 4.2 µM
[5]; [12]
  IC50: 3.6 µM

## O=C1C=C2CC(S(=O)(=O)c3ccccc3)[C@@H]3C[C@@]2(O1)[C@H]1CCCCN31 (stereo partly shown) [INVS-MG-184B]
[1]; [8]
  EC50: 5 to 7.5 µM

## C#CC1=C[C@@H]2C[C@@]3(OC(=O)C=C13)[C@H]1CCCCN21 [INVS-MG-207-II]
[1]; [8]
  EC50: > 0.07 µM

## O=C1C=C2C(c3cn(Cc4ccccc4)nn3)=C[C@@H]3C[C@@]2(O1)[C@H]1CCCCN31 [INVS-MG-209A]
[1]; Homo sapiens, HL-60, HL-60 cells, differentiation, read-out: HL-60, Dif50
  EC50: < 10 µM
[6]
  IC50: < 10 µM

## COc1cccc(C#CC2=C[C@@H]3C[C@@]4(OC(=O)C=C24)[C@H]2CC[C@H](C(OC)OC)N32)c1 [INVS-MG-221B]
[6]; [13]
  IC50: 0.625 to 1.25 µM

## COc1cc(C#CC2=C[C@@H]3C[C@@]4(OC(=O)C=C24)[C@H]2CC[C@H](C(OC)OC)N32)cc(OC)c1 [INVS-MG-222B]
[6]; [13]
  IC50: < 0.03 µM

## COc1ccc(C#CC2=C[C@@H]3C[C@@]4(OC(=O)C=C24)[C@H]2CC[C@H](C(OC)OC)N32)cc1OC [INVS-MG-223B]
[6]; [13]
  IC50: 0.156 to 0.31 µM

## COC(OC)[C@H]1CC[C@H]2N1[C@@H]1C=C(C#Cc3ccc(CO)cc3)C3=CC(=O)O[C@@]32C1 [INVS-MG-224A]
[6]; [13]
  IC50: 0.156 to 0.31 µM

## OC1C=C2CC(SCc3ccccc3)[C@@H]3C[C@@]2(O1)[C@H]1CCCCN31 (stereo partly shown) [Sec-2]
[1]; [8]
  EC50: > 30 µM

## Oc1ccccc1CSC1CC2=CC(O)O[C@@]23C[C@@H]1N1CCCC[C@@H]13 (stereo partly shown) [Sec-4]
[1]; [8]
  EC50: 15 to 20 µM

## OC1C=C2CC(SC3CCCC3)[C@@H]3C[C@@]2(O1)[C@H]1CCCCN31 (stereo partly shown) [Sec-6]
[1]; [8]
  EC50: 15 to 20 µM

## CSC1CC2=CC(O)O[C@@]23C[C@@H]1N1CCCC[C@@H]13 (stereo partly shown) [Sec-8]
[1]; [8]
  EC50: 10 to 15 µM

## COc1ccc(SC2CC3=CC(O)O[C@@]34C[C@@H]2N2CCCC[C@@H]24)cc1 (stereo partly shown) [Sec-9]
[1]; [8]
  EC50: 20 to 30 µM

## O=C1C=C2CC(N3CCN(c4ccc(Br)cc4)CC3)[C@@H]3C[C@@]2(O1)[C@H]1CCCCN31 (stereo partly shown) [Sec-11]
[1]; [8]
  EC50: 15 to 20 µM

## OC1CC2CC[C@@H]3C[C@@]2(O1)[C@H]1CCCCN31 (stereo partly shown) [Sec-16]
[1]; [8]
  EC50: 20 to 30 µM

## CC1CC2=CC(=O)O[C@@]23C[C@@H]1N1CCCC[C@@H]13 (stereo partly shown) [Sec-18 & Sec-20]
[1]; [8]
  EC50: 20 to 30 µM

## O=C1C=C2CC(S(=O)Oc3ccccc3)[C@@H]3C[C@@]2(O1)[C@H]1CCCCN31 (stereo partly shown) [Sec-19]
[1]; [8]
  EC50: 20 to 30 µM

## O=C1C=C2CC([S+]([O-])c3ccccc3)[C@@H]3C[C@@]2(O1)[C@H]1CCCCN31 (stereo partly shown) [Sec-21]
[1]; [8]
  EC50: 20 to 30 µM
